These results are taken from patent publication US6548507B1, “Medical use” (SmithKline Beecham Corporation, priority 1999, dated 2003).

One experiment has as its system mechanical allodynia. Nature of the experiment: CCI mechanical allodynia, Von Frey Hair monofilaments. The format is in vivo, rat. As to conditions: CCI rats, drug administered from day 12, Von Frey Hair monofilaments. An excerpt:
(§1) Under isoflurane anaesthesia, the common left sciatic nerve of male Random Hooded rats (180-200 g) was exposed at mid-thigh level. Four ligatures of chromic gut (4.0) were tied loosely around the nerve with a 1 mm spacing between each. The wound was then closed and secured with suture clips. The surgical procedure was identical for the sham operated animals except the sciatic nerve was not ligated. The rats were allowed a period of seven days to recover from the surgery before behavioural testing began.
The presence of mechanical allodynia was assessed using Von Frey Hair monofilaments (range:4.19-84.96 g). The rats were lightly restrained and placed upon a metal grid floor. The monofilaments were applied to the plantar surface of the hindpaws from below the grid. The lowest monofilament to produce a withdrawal was the response recorded.

For experiment [1], the system named is apoptotic neurons in L5 dorsal root ganglions. In words: Neuronal apoptosis after sciatic nerve axotomy in the neonatal rat (TUNEL combined with Hoechst 33342 and immunohistochemistry). As to conditions: single pre-emptive injection 10 mg/kg s/c, observed at 24 hours, vs vehicle treated controls. Type of experiment: in vivo. How it is done: Newborn animals received a single pre-emptive injection of R(−)-2,4-diamino-5-(2,3-dichlorophenyl)-6-fluoromethyl pyrimidine, substantially free of the corresponding S(+)enantiomer (4030W92) (10 mg/kg, s/c). Twenty minutes later the animals were anaesthetised by hypothermia, the nerve exposed and transected at the mid thigh level. The extent of neuronal and glial apoptosis was investigated using the TUNEL technique combined with Hoechst 33342 (Sigma) and immunohistochemistry. The ipsilateral and contralateral L5 dorsal root ganglions were compared and the 4030W92 treated group was compared to vehicle treated controls and to animals that received an injection of 4030W92 alone, ie. no nerve transection.

Experiment [2] relates to mechanical hypersensitivity. In words: CCI-induced decrease in mechanical paw withdrawal threshold (algesymeter). Type of experiment: in vivo, rat. The conditions noted are these: CCI rats, drug administered from day 12, algesymeter.
From the text: as §1
The effect on Chronic Constriction Injury-induced decrease in mechanical paw withdrawal threshold was measured using an algesymeter (Randall L O, Selitto J J. A method for measurement of analgesic activity on inflamed tissue. Arch. Int. Pharmacodyn. 1957; 61:409-419). In brief, from 7 days post surgery onwards every 2 or 3 days the animals were tested for mechanical hypersensitivity by applying an increasing weight (16 gram per second) to the dorsal surface of each hindpaw until the rat attempted to remove the paw. The increasing weight was halted at this point and the weight recorded and expressed as mechanical paw withdrawal threshold. The maximum weight applied in this model was 250 gram. Drug was administered once the hypersensitivity was maximal which in this case was at day 12.

Experiment [3] relates to sensory neuronal apoptosis. Nature of the experiment: Apoptosis in L4 and L5 dorsal root ganglia after chronic constriction injury (CCI), Hoechst 33342 staining. Type of experiment: in vivo, rat. As to conditions: for number of neurones undergoing apoptosis (FIG. 2): CCI rats, 10 mg/kg, time points day 7, 21 and 30, vs vehicle treated animals; for sensory neuronal apoptosis / glial apoptosis: adult male CCI rats; for sensory neuronal apoptosis: 10 mg/kg dosed day 12 to day 25, at day 30 post surgery; for glial apoptosis: 10 mg/kg dosed day 12 to day 25, results not shown. The method, then:
Adult male random hooded rats were either chronic constriction injury (CCI) or sham operated at day 0. Dosing with vehicle, 4030W92 (10 mg/kg) or 4082W92 (10 mg/kg) was from day 12 to day 25. At time points 7, 14, 21, 27 and 30 days post surgery animals (n=3 per group except for naives) were sacrificed by exsanguination after behavioural testing as described below. Naive animals were all sacrificed 30 days post surgery. L4 and L5 dorsal root ganglias were removed and placed in a freezing medium for sectioning. Sections (14 μm) were cut using a freezing cryostat (Leica) and placed on poly (L) lysine coated slides. These were post-fixed in 4% paraformaldehyde (Sigma) for 20 minutes, dehydrated through alcohol and kept at −80° until required. On the day of staining, the sections were rehydrated through alcohol and placed in phosphate buffered saline (PBS) for at least 15 minutes. They were incubated with the fluorescent nuclear stain Hoechst 33342 (1 μg/ml) (Sigma) for 4 minutes and then washed extensively with PBS. After drying, the slides were mounted with Vectashield mounting medium (Vector Labs) and coverslipped. The slides could be kept in the dark for up to 6 weeks without fading.
The sections were studied under the microscope (Leica) at 400× for morphological signs of apoptosis—nuclear condensation, membrane blebbing and presence of apoptotic bodies (Trump 1997 supra). Cells were assigned as neurones or glia depending on their size, location, and general morphology. Four fields from each section were selected at random, the number of apoptotic cells and total number of cells was counted in each and then mean figures for each group were calculated. This analysis was carried out blind. […] Glial apoptosis was unaffected (results not shown).

The subject of experiment [4] is motorneuronal apoptotic cell death. The conditions noted are these: after neonatal axotomy; cited from earlier work.

Each structure is given as a SMILES string.

Take `Nc1nc(N)c(-c2cccc(Cl)c2Cl)c(CF)n1` (atropisomer, axis not shown) [4030W92, R(−)-2,4-diamino-5-(2,3-dichlorophenyl)-6-fluoromethyl pyrimidine]: in the experiment on mechanical allodynia, the “Von Frey withdrawal threshold (mechanical allodynia)” value is given as “significantly reversed the reduction in thresholds”. The “number of apoptotic neurons” value in experiment [1] is “significant reduction in the number of apoptotic neurons”. Besides, the “mechanical paw withdrawal threshold” value in experiment [2] was “significantly reversed the reduction in thresholds”. In experiment [3], the “number of neurones undergoing apoptosis (FIG. 2)” value is “decreases”, the sensory neuronal apoptosis entry is given as “significantly reduced sensory neuronal apoptosis” and the glial apoptosis result was “unaffected”.

For `Nc1nc(N)c(-c2cccc(Cl)c2Cl)c(CF)n1` [4082W92, S(+)-2,4-diamino-5-(2,3-dichlorophenyl)-6-fluoromethylpyrimidine], in experiment [3], the “number of neurones undergoing apoptosis (FIG. 2)” value is “decreases”, the sensory neuronal apoptosis result is on record as “significantly reduced sensory neuronal apoptosis” and the glial apoptosis result is “unaffected”.

`Nc1nnc(-c2cccc(Cl)c2Cl)c(N)n1` [lamotrigine, 3,5-diamino-6-(2,3-dichlorophenyl)-1,2,4-triazine]: the “motorneuronal apoptotic cell death” value in experiment [4] was “can prevent motorneuronal apoptotic cell death”.
